Test results as given in US7943575B2, “Sustained release drug formulations containing a carrier peptide” (Ipsen Pharma S.A.S., priority 2002, dated 2011).
Read-outs that look alike come from different tables or passages of the source. Each block holds one compound with its values, some of them ahead of it.

Experiment: Pharmacokinetic profile of a SOMATULINE/DECAPEPTYL composition in beagle dogs (RIA of blood samples)
Assay type: in vivo
Excerpt: Once a particular peptide or peptide salt is found to gel in an in vitro assay, e.g., an assay as described above, an in vivo assay can be used to determine the suitability of that peptide salt for use as a sustained-release carrier peptide of a therapeutic agent or agents in animals or humans. A blood level release profile for the carrier peptide and/or the therapeutic agent or agents can be determined by injecting the composition into an animal, e.g., a Sprague Dawley rat, a dog, etc., and testing blood samples taken at specific time intervals, e.g., hourly intervals over 1 to 5 days, or 12 or 24 hour intervals over 5 to 45 days, for the concentration of the peptide and/or therapeutic agent or agents. The suitability of a particular peptide gel, or a peptide/carrier gel, for therapeutic delivery of the carrier peptide and/or therapeutic agent or agents can thus be determined.
Generally, in such an assay animals are anaesthetized with pentobarbital (60 mg/kg i.p. for rats), and a jugular vein is cannulated for blood sampling. A test semisolid suspension or solid composition (or standard solution for comparison purposes), e.g., a SOMATULINE/DECAPEPTYL mixture, is injected subcutaneously at a specific dosage, e.g., 1.0, 3.0, or 6.0 mg/kg of SOMATULINE. After administration of the composition or solution, heparinized blood samples are obtained through the cannula at set time intervals, and plasma is separated after centrifugation. The amount of carrier peptide and/or therapeutic agent(s) in the plasma samples is/are determined by, e.g., a standard radioimmunoassay (RIA) technique that allows a direct measurement of the carrier peptide and/or therapeutic agent(s) without extraction from the rat plasma. The resulting data are plotted (e.g., blood concentration (ng/ml) vs. time) to establish a blood level release profile.
0.15 ml of the foregoing semisolid mixture from Example 1 was loaded into a 0.3 ml insulin syringe and was injected into beagle dogs. Blood samples were collected and standard radioimmunoassay (RIA) analysis was performed thereon.

level at 0.24 h (beagle, dog, in vivo, 0.15 ml): 2.66 ng/mL
level at 0.48 h (beagle, dog, in vivo, 0.15 ml): 6.04 ng/mL
level at 0.96 h (beagle, dog, in vivo, 0.15 ml): 9.97 ng/mL
level at 1.92 h (beagle, dog, in vivo, 0.15 ml): 16.4 ng/mL
level at 4.08 h (beagle, dog, in vivo, 0.15 ml): 17.3 ng/mL
level at 6 h (beagle, dog, in vivo, 0.15 ml): 21.2 ng/mL
level at 9.12 h (beagle, dog, in vivo, 0.15 ml): 23.1 ng/mL
level at 24 h (beagle, dog, in vivo, 0.15 ml): 8.11 ng/mL
level at 47.76 h (beagle, dog, in vivo, 0.15 ml): 3.97 ng/mL
level at 72.48 h (beagle, dog, in vivo, 0.15 ml): 3.16 ng/mL
level at 144.96 h (beagle, dog, in vivo, 0.15 ml): 1.35 ng/mL
level at 192.96 h (beagle, dog, in vivo, 0.15 ml): 0.94 ng/mL
level at 241.44 h (beagle, dog, in vivo, 0.15 ml): 0.5 ng/mL
level at 312.96 h (beagle, dog, in vivo, 0.15 ml): 0.42 ng/mL
level at 361.2 h (beagle, dog, in vivo, 0.15 ml): 0.32 ng/mL
level at 408.48 h (beagle, dog, in vivo, 0.15 ml): 0.24 ng/mL
level at 483.36 h (beagle, dog, in vivo, 0.15 ml): 0.19 ng/mL
level at 528.96 h (beagle, dog, in vivo, 0.15 ml): 0.13 ng/mL
level at 577.44 h (beagle, dog, in vivo, 0.15 ml): 0.11 ng/mL
level at 650.88 h (beagle, dog, in vivo, 0.15 ml): 0.07 ng/mL
duration of sustained release of therapeutic levels in the blood (dog, in vivo): one month or longer
Compound: CC(C)C[C@H](NC(=O)[C@@H](Cc1c[nH]c2ccccc12)NC(=O)[C@H](Cc1ccc(O)cc1)NC(=O)[C@H](CO)NC(=O)[C@H](Cc1c[nH]c2ccccc12)NC(=O)[C@H](Cc1c[nH]cn1)NC(=O)[C@@H]1CCC(=O)N1)C(=O)N[C@@H](CCCNC(=N)N)C(=O)N1CCC[C@H]1C(=O)NCC(N)=O [DECAPEPTYL]

Compound: CC(C)[C@@H]1NC(=O)[C@H](CCCCN)NC(=O)[C@@H](Cc2c[nH]c3ccccc23)NC(=O)[C@H](Cc2ccc(O)cc2)NC(=O)[C@@H](NC(=O)[C@H](N)Cc2ccc3ccccc3c2)CSSC[C@@H](C(=O)N[C@H](C(N)=O)[C@@H](C)O)NC1=O [SOMATULINE, lanreotide]
level at 0 h (dog, in vivo, TIME 0.00 days, beagle dogs, 0.15 ml Example 1 semisolid mixture injected, read-out: concentration in blood samples (RIA)): 0.02 ng/mL
level at 0.24 h (dog, in vivo, TIME 0.01 days, beagle dogs, 0.15 ml Example 1 semisolid mixture injected, read-out: concentration in blood samples (RIA)): 3.91 ng/mL
level at 0.48 h (dog, in vivo, TIME 0.02 days, beagle dogs, 0.15 ml Example 1 semisolid mixture injected, read-out: concentration in blood samples (RIA)): 7.29 ng/mL
level at 0.96 h (dog, in vivo, TIME 0.04 days, beagle dogs, 0.15 ml Example 1 semisolid mixture injected, read-out: concentration in blood samples (RIA)): 9.34 ng/mL
level at 1.92 h (dog, in vivo, TIME 0.08 days, beagle dogs, 0.15 ml Example 1 semisolid mixture injected, read-out: concentration in blood samples (RIA)): 12.6 ng/mL
level at 4.08 h (dog, in vivo, TIME 0.17 days, beagle dogs, 0.15 ml Example 1 semisolid mixture injected, read-out: concentration in blood samples (RIA)): 17.3 ng/mL
level at 6 h (dog, in vivo, TIME 0.25 days, beagle dogs, 0.15 ml Example 1 semisolid mixture injected, read-out: concentration in blood samples (RIA)): 19.5 ng/mL
level at 9.12 h (dog, in vivo, TIME 0.38 days, beagle dogs, 0.15 ml Example 1 semisolid mixture injected, read-out: concentration in blood samples (RIA)): 17.8 ng/mL
level at 24 h (dog, in vivo, TIME 1.00 days, beagle dogs, 0.15 ml Example 1 semisolid mixture injected, read-out: concentration in blood samples (RIA)): 11.4 ng/mL
level at 47.76 h (dog, in vivo, TIME 1.99 days, beagle dogs, 0.15 ml Example 1 semisolid mixture injected, read-out: concentration in blood samples (RIA)): 9.51 ng/mL
level at 72.48 h (dog, in vivo, TIME 3.02 days, beagle dogs, 0.15 ml Example 1 semisolid mixture injected, read-out: concentration in blood samples (RIA)): 7.77 ng/mL
level at 144.96 h (dog, in vivo, TIME 6.04 days, beagle dogs, 0.15 ml Example 1 semisolid mixture injected, read-out: concentration in blood samples (RIA)): 6.63 ng/mL
level at 192.96 h (dog, in vivo, TIME 8.04 days, beagle dogs, 0.15 ml Example 1 semisolid mixture injected, read-out: concentration in blood samples (RIA)): 5.99 ng/mL
level at 241.44 h (dog, in vivo, TIME 10.06 days, beagle dogs, 0.15 ml Example 1 semisolid mixture injected, read-out: concentration in blood samples (RIA)): 4.88 ng/mL
level at 312.96 h (dog, in vivo, TIME 13.04 days, beagle dogs, 0.15 ml Example 1 semisolid mixture injected, read-out: concentration in blood samples (RIA)): 3.14 ng/mL
level at 361.2 h (dog, in vivo, TIME 15.05 days, beagle dogs, 0.15 ml Example 1 semisolid mixture injected, read-out: concentration in blood samples (RIA)): 2.54 ng/mL
level at 408.48 h (dog, in vivo, TIME 17.02 days, beagle dogs, 0.15 ml Example 1 semisolid mixture injected, read-out: concentration in blood samples (RIA)): 1.85 ng/mL
level at 483.36 h (dog, in vivo, TIME 20.14 days, beagle dogs, 0.15 ml Example 1 semisolid mixture injected, read-out: concentration in blood samples (RIA)): 1.46 ng/mL
level at 528.96 h (dog, in vivo, TIME 22.04 days, beagle dogs, 0.15 ml Example 1 semisolid mixture injected, read-out: concentration in blood samples (RIA)): 1.3 ng/mL
level at 577.44 h (dog, in vivo, TIME 24.06 days, beagle dogs, 0.15 ml Example 1 semisolid mixture injected, read-out: concentration in blood samples (RIA)): 1.11 ng/mL
level at 650.88 h (dog, in vivo, TIME 27.12 days, beagle dogs, 0.15 ml Example 1 semisolid mixture injected, read-out: concentration in blood samples (RIA)): 0.65 ng/mL
level at 698.64 h (dog, in vivo, TIME 29.11 days, beagle dogs, 0.15 ml Example 1 semisolid mixture injected, read-out: concentration in blood samples (RIA)): 0.52 ng/mL
level at 745.2 h (dog, in vivo, TIME 31.05 days, beagle dogs, 0.15 ml Example 1 semisolid mixture injected, read-out: concentration in blood samples (RIA)): 0.52 ng/mL
level at 818.64 h (dog, in vivo, TIME 34.11 days, beagle dogs, 0.15 ml Example 1 semisolid mixture injected, read-out: concentration in blood samples (RIA)): 0.5 ng/mL
level at 866.88 h (dog, in vivo, TIME 36.12 days, beagle dogs, 0.15 ml Example 1 semisolid mixture injected, read-out: concentration in blood samples (RIA)): 0.45 ng/mL
level at 912.72 h (dog, in vivo, TIME 38.03 days, beagle dogs, 0.15 ml Example 1 semisolid mixture injected, read-out: concentration in blood samples (RIA)): 0.34 ng/mL
level at 984.72 h (dog, in vivo, TIME 41.03 days, beagle dogs, 0.15 ml Example 1 semisolid mixture injected, read-out: concentration in blood samples (RIA)): 0.27 ng/mL
level at 1082.4 h (dog, in vivo, TIME 45.10 days, beagle dogs, 0.15 ml Example 1 semisolid mixture injected, read-out: concentration in blood samples (RIA)): 0.17 ng/mL
level at 1160.64 h (dog, in vivo, TIME 48.36 days, beagle dogs, 0.15 ml Example 1 semisolid mixture injected, read-out: concentration in blood samples (RIA)): 0.14 ng/mL
level at 1199.76 h (dog, in vivo, TIME 49.99 days, beagle dogs, 0.15 ml Example 1 semisolid mixture injected, read-out: concentration in blood samples (RIA)): 0.15 ng/mL
level at 1248.24 h (dog, in vivo, TIME 52.01 days, beagle dogs, 0.15 ml Example 1 semisolid mixture injected, read-out: concentration in blood samples (RIA)): 0.21 ng/mL
level at 1368.96 h (dog, in vivo, TIME 57.04 days, beagle dogs, 0.15 ml Example 1 semisolid mixture injected, read-out: concentration in blood samples (RIA)): 0.14 ng/mL
level at 1417.92 h (dog, in vivo, TIME 59.08 days, beagle dogs, 0.15 ml Example 1 semisolid mixture injected, read-out: concentration in blood samples (RIA)): 0.27 ng/mL
level at 1536.48 h (dog, in vivo, TIME 64.02 days, beagle dogs, 0.15 ml Example 1 semisolid mixture injected, read-out: concentration in blood samples (RIA)): 0.21 ng/mL
level at 1584.48 h (dog, in vivo, TIME 66.02 days, beagle dogs, 0.15 ml Example 1 semisolid mixture injected, read-out: concentration in blood samples (RIA)): 0.2 ng/mL
level at 1656.24 h (dog, in vivo, TIME 69.01 days, beagle dogs, 0.15 ml Example 1 semisolid mixture injected, read-out: concentration in blood samples (RIA)): 0.16 ng/mL
level at 1707.6 h (dog, in vivo, TIME 71.15 days, beagle dogs, 0.15 ml Example 1 semisolid mixture injected, read-out: concentration in blood samples (RIA)): 0.15 ng/mL
duration of sustained release of therapeutic levels in the blood (gel with SOMATULINE as carrier peptide and DECAPEPTYL as therapeutic agent, see Example 1): one month or longer
